Consider 5 compounds from patent US9851358B2, “Methods and pharmaceutical compositions for preventing or reducing metastatic dissemination” (INSERM (Institut National de la Sante et de la Recherche …, priority 2014, dated 2017).

“Also recorded” adds a separate entry of the source.

One series deals with lung cancer cells. The settings on record: via activation of protein phosphatase 2A; cited from earlier work.
Series [1] relates to mesenchymal breast cancer cells. In words: Membrane fluidity by EPR, mesenchymal breast cancer cells. It is filed as cell-based, human. The note with it: for CD95-mediated increase in membrane fluidization: 1 μM pre-incubation 60 min, then cl-CD95L 100 ng/mL 30 min. The method, then: FIG. 1. Treatment of mesenchymal breast cancer cells with a non-toxic amount of exogenous C16:0 ceramide reduces plasma membrane fluidity and prevents basal and CD95-mediated cell migration. A. The indicated cells were pre-incubated with or without a non-cytotoxic dose (1 μM) of C16:0 ceramide (C16-Cer) for 60 min, and were then incubated with or without cl-CD95L (100 ng/mL) for 30 min. Membrane fluidity was assessed by EPR. Values are means±SEM of four independent experiments (*, p<0.05; ns, not significant). B. Indicated cells were pretreated with or without C16:0 ceramide ([…]) for 60 min and were then incubated with or without cl-CD95L (100 ng/mL) for 24 h. Cell migration was assessed by the Boyden chamber assay. Bars=70 μm. Giemsa-stained cells that migrated to the lower side of the membrane were lysed and absorbance at 560 nm was recorded. Values represent the means and SEM of three independent experiments (*p<0.05). Membrane fluidity was determined by a spin-labeling method using EPR, as previously described^27. Briefly, plasma membranes of living cells were labeled by incubating cells for 15 min at 37° C. with 12-doxyl stearic acid (36 μg/mL), a fatty acid with a stable nitroxide radical ring at the C-12 position. Cells were then washed twice with PBS to remove excess 12-doxyl stearic acid and EPR spectra of the labeled samples were acquired at ambient temperature on a Bruker Elexsys EPR spectrometer operating at 3509.25 G center field, 20 mW microwave power, 9.86 GHz microwave frequency, 1.77 G modulation amplitude, and 100 kHz modulation frequency. Fluidity of the spin-labeled membranes was quantified by calculating the S parameter. An increase in the S parameter reflects a decrease in membrane fluidity, and vice versa.

Series [2] has the same test system. The series is described as follows: Boyden chamber cell migration, mesenchymal breast cancer cells. It is filed as cell-based, human. The note with it: non-cytotoxic concentration; for basal migration: Boyden chamber 24 h; for CD95-mediated migration: cl-CD95L 100 ng/mL 24 h, Boyden chamber. The method, then: FIG. 1. Treatment of mesenchymal breast cancer cells with a non-toxic amount of exogenous C16:0 ceramide reduces plasma membrane fluidity and prevents basal and CD95-mediated cell migration. A. The indicated cells were pre-incubated with or without a non-cytotoxic dose (1 μM) of C16:0 ceramide (C16-Cer) for 60 min, and were then incubated with or without cl-CD95L (100 ng/mL) for 30 min. Membrane fluidity was assessed by EPR. Values are means±SEM of four independent experiments (*, p<0.05; ns, not significant). B. Indicated cells were pretreated with or without C16:0 ceramide ([…]) for 60 min and were then incubated with or without cl-CD95L (100 ng/mL) for 24 h. Cell migration was assessed by the Boyden chamber assay. Bars=70 μm. Giemsa-stained cells that migrated to the lower side of the membrane were lysed and absorbance at 560 nm was recorded. Values represent the means and SEM of three independent experiments (*p<0.05).
(§1) Boyden chambers contained membranes with a pore size of 8 μm (Millipore, Molsheim, France). After hydration of the membranes, mesenchymal cells (10^5 cells per chamber) or epithelial cells (3×10^5 cells per chamber) were added to the top chamber in low serum (1%)-containing medium. The bottom chamber was filled with low serum (1%)-containing medium in the presence or absence of cl-CD95L (100 ng/mL). Cells were cultured for 24 h at 37° C. To quantify migration, cells were mechanically removed from the top side of the membrane using a cotton-tipped swab, and migrating cells from the reverse side were fixed with methanol and stained with Giemsa. For each experiment, five representative pictures were taken for each insert, then cells were lyzed and absorbance at 560 nm correlated to the amount of Giemsa stain was measured.

In series [3] the test system is CD95-mediated PI3K signaling pathway. In words: Akt serine 473 phosphorylation (CD95-mediated PI3K signaling). In kind it is cell-based. On the procedure: Cells were lyzed for 30 min at 4° C. in lysis buffer (25 mM HEPES pH 7.4, 1% (v/v) Triton X-100, 150 mM NaCl, and 2 mM EGTA supplemented with a mixture of protease inhibitors). Protein concentration was determined by the bicinchoninic acid method (Pierce, Rockford, Ill., USA) according to the manufacturer's protocol. Proteins were resolved by 8, 10, or 12% SDS-PAGE and transferred to a nitrocellulose membrane (GE Healthcare, Buckinghamshire, UK). The membrane was blocked for 15 min with TBST (50 mM Tris, 160 mM NaCl, and 0.05% (v/v) Tween 20, pH 7.4) containing 5% (w/v) dried skimmed milk (TBSTM), and was then incubated overnight at 4° C. with the primary antibody diluted in TBSTM. The membrane was washed with TBST and was then incubated with peroxidase-labeled anti-mouse IgG1 or IgG2a (CliniSciences, Nanterre, France) for 45 min. Proteins were visualized using the enhanced chemiluminescence substrate kit (ECL RevelBlOt®, Ozyme, Saint Quentin en Yvelines, France).

Series [4] concerns mesenchymal breast cancer cells. In words: Cytotoxicity of exogenous C16:0 ceramide. In kind it is cell-based, human. The settings on record: 1 μM.
Series [5] has as its system MDA-MB-231 cells. The series is described as follows: Membrane fluidity by EPR (S parameter), MDA-MB-231. It is filed as cell-based, human. The settings on record: MDA-MB-231, pretreatment with non-cytotoxic dose. On the procedure:
(§2) Membrane fluidity was determined by a spin-labeling method using EPR, as previously described^27. Briefly, plasma membranes of living cells were labeled by incubating cells for 15 min at 37° C. with 12-doxyl stearic acid (36 μg/mL), a fatty acid with a stable nitroxide radical ring at the C-12 position. Cells were then washed twice with PBS to remove excess 12-doxyl stearic acid and EPR spectra of the labeled samples were acquired at ambient temperature on a Bruker Elexsys EPR spectrometer operating at 3509.25 G center field, 20 mW microwave power, 9.86 GHz microwave frequency, 1.77 G modulation amplitude, and 100 kHz modulation frequency. Fluidity of the spin-labeled membranes was quantified by calculating the S parameter. An increase in the S parameter reflects a decrease in membrane fluidity, and vice versa.

In series [6] the test system is MDA-MB-231 cells. In words: Boyden chamber cell migration, MDA-MB-231. In kind it is cell-based, human. The settings on record: MDA-MB-231, pretreatment with non-cytotoxic dose, cl-CD95L. On the procedure:
as §1

Series [7] has as its system epithelial cell line MCF7. The series is described as follows: Membrane fluidity by EPR, MCF7. In kind it is cell-based, human. The note with it: MCF7, non-cytotoxic concentration, 48 hours. On the procedure:
as §2

In series [8] the test system is epithelial cell line MCF7. In words: Boyden chamber cell migration, MCF7. It is filed as cell-based, human. The note with it: MCF7, non-cytotoxic concentration. On the procedure: as §1
A further series has as its system CerS. The note with it: cited from earlier work.
For the next series, the system named is NMuMG cells. The settings on record: cited from earlier work.

Take `CCCCCCCCCCCCC/C=C/[C@@H](O)[C@H](CO)NC(C)=O` [C2-ceramide]: the “migration of lung cancer cells in response to nicotine” value in the series with lung cancer cells is listed as “inhibit”.

As for `CCCCCCCCCCCCC/C=C/[C@@H](O)[C@H](CO)NC(=O)CCCCCCCCCCCCCCC` [C16-ceramide, N-palmitoyl-D-sphingosine], the “CD95-mediated increase in membrane fluidization” value is “inhibited” in series [1] and “completely inhibited” in series [1] (listed as C16:0 ceramide). In addition, the “basal S parameter” value in series [1] (non-cytotoxic concentration (1 μM), increase in S = decrease in fluidity) is “slightly increased”. Further, the plasma membrane fluidity result in series [1] (non-toxic amount of exogenous C16:0 ceramide) was “reduces”. Further, the results for the basal migration entry in [2] and in series [2] (listed as C16:0 ceramide) were “impaired” and “prevents”, respectively. The CD95-mediated migration entry in [2] is “impaired; also recorded: inhibited”; in series [2] (listed as C16:0 ceramide), “prevents”. Besides, in [3], the “CD95-mediated PI3K signaling pathway (phosphorylation at serine 473 of Akt)” value is “did not affect”. Also, the cytotoxicity entry in [4] is given as “non-cytotoxic”.

As for `CCCCCCCCC1CC1CCCCCCCC(=O)OCCOCCOC` (centres unmarked) [A2C], in the series with MDA-MB-231 cells [5], the basal membrane fluidity result was “significantly enhanced”. The “CD95-mediated increase in plasma membrane fluidity” value in the series on MDA-MB-231 cells [5] (then cl-CD95L) is recorded as “significantly enhanced”. In the series on MDA-MB-231 cells [6], the CD95-mediated migration entry is on record as “stimulated”.

As to `CCCC[C@@H](C)[C@@H](OC(=O)C[C@@H](CC(=O)O)C(=O)O)[C@H](C[C@@H](C)C[C@H](O)CCCC[C@@H](O)C[C@H](O)[C@H](C)N)OC(=O)C[C@@H](CC(=O)O)C(=O)O` [FB1, Fumonisin B1], in series [7], the CD95-induced membrane fluidity entry is given as “slightly, but significantly, increased” and the basal membrane fluidity result is given as “slightly, but significantly, increased”. In addition, in series [8], the CD95-mediated cell migration result is “enhanced” and the basal cell migration result is listed as “enhanced”. The CerS activity entry with CerS was “selectively inhibits”.

Turning to gangliotetraosylceramide [Gg4], the “reversal of TGF-β-induced EMT” value with NMuMG cells is on record as “does”.
